Assay [1] can be described thus: Function of sodium cholate as bile acid carrier of insulin and protease inhibitor agent.
The next assay relates to blood glucose levels. The following applies: insulin mixed with bile salts, through the rectum, dose of 48 μ/kg; cited from earlier work.
The test system of the next assay is diabetic dog. The experiment in a line: Glucose levels in a diabetic dog after administration of insulin (oral enterocoated capsule; intramuscular comparison). The format is in vivo. The following applies: 0.5 u/kg intramuscular injection.

Turning to `C[C@H](CCC(=O)[O-])[C@H]1CC[C@H]2[C@@H]3[C@H](O)C[C@@H]4C[C@H](O)CC[C@]4(C)[C@H]3C[C@H](O)[C@]12C.[Na+]` [sodium cholate], the “function as bile acid carrier of the insulin and protease inhibitor agent” value in assay [1] is “can simultaneously function both as the bile acid carrier of the insulin and the protease inhibitor agent”.

As for Insulin, in the assay with blood glucose levels, the “reduction of blood glucose levels” value is given as “approximately 50%”. Also, the Glucose in the assay on diabetic dog (0 min) is 28.7 mm; in the assay on diabetic dog (10 min), 23.3 mm; in the assay on diabetic dog (20 min), 21.5 mm; with diabetic dog (30 min), 19.9 mm; in the assay on diabetic dog (45 min), 15.6 mm; in the assay with diabetic dog (60 min), 12.9 mm. Further, the Glucose with diabetic dog (75 min) turned out to be 10.9 mm; in the assay with diabetic dog (90 min) it was 8.5 mm; in the assay with diabetic dog (120 min), 6.5 mm; in the assay with diabetic dog (150 min), 6.4 mm; in the assay on diabetic dog (180 min) it was 6.5 mm.
